Reference: patent publication US20090088472A1, “Protective Agent for Neuronal Cell Comprising Amidino Derivative as Active Ingredient” (priority 2006, published 2009)

Key:
[1] = system: retinal neuronal cells (RGC in ganglion cell layer, inner plexiform layer) damaged by NMDA; experiment: NMDA-induced retinal damage in rats (intravitreal administration, histology after 14 days); type: in vivo; conditions: rat, 14 days after administration
From the text: In order to study the effect of protecting a retinal neuronal cell of a compound represented by the general formula [I] or a salt thereof, the effects of nafamostat and FUT-187, each of which is a compound represented by the general formula [I] or a salt thereof on NMDA-induced retinal damage in rats were studied. As comparative compounds, camostat (N,N-dimethylcarbamoylmethyl-4-(4-guanidinobenzoyloxy)phenylacetate methanesulfonate) represented by the following formula [II] and gabexate (ethyl-4-(6-guanidinohexanoyloxy)benzoate methanesulfonate) represented by the following formula [III] were used.
Each of NMDA, nafamostat and FUT-187 was dissolved in distilled water, whereby an NMDA solution, a nafamostat solution, and an FUT-187 aqueous solution were obtained. Then, the solutions were appropriately mixed, whereby an aqueous solution of 4 mM NMDA and 2 mM nafamostat (hereinafter referred to as “Test liquid 1”) and an aqueous solution of 4 mM NMDA and 2 mM FUT-187 (hereinafter referred to as “Test liquid 2”) were obtained. In the same manner, an aqueous solution of 4 mM NMDA and 20 mM camostat (hereinafter referred to as “Comparative test liquid 1”) and an aqueous solution of 4 mM NMDA and 20 mM gabexate (hereinafter referred to as “Comparative test liquid 2”) were obtained. Further, by mixing the NMDA solution and distilled water, a 4 mM NMDA liquid (hereinafter referred to as “NMDA liquid”) was obtained.
Mydriasis was induced in a rat with a 0.5% (w/v) tropicamide-0.5% phenylephrine hydrochloride ophthalmic solution, and then, anesthesia was induced with 3% halothane, and then, anesthesia was maintained with 1% halothane (halothane was vaporized with 0.5 L oxygen/min and 1.5 L dinitrogen monoxide/min). Then, a 0.4% (w/v) oxybuprocaine hydrochloride ophthalmic solution was instilled to the rat to anesthetize the surface of the eyeball, and by using a 32-gauge Hamilton microsyringe, 5 μl of Test liquid 1 was intravitreally administered under an operating microscope. Further, the same procedure as above was carried out by sequentially altering Test liquid 1 into distilled water, NMDA liquid, Test liquid 2, Comparative test liquid 1 and Comparative test liquid 2, respectively. Then, 14 days after the administration, the eyeball was taken out and fixed in 2.5% glutaraldehyde-10% neutral buffered formalin for 1 day. Thereafter, the cornea and lens were excised, and the 2.5% glutaraldehyde-10% neutral buffered formalin was changed to 10% neutral buffered formalin. At a later date, dehydration was carried out, followed by paraffin embedding and slicing and pathological tissue sections (with a thickness of 3 μm) stained with hematoxylin-eosin (HE) were prepared. From 8 sections which had been prepared by slicing the specimen with an interval of 15 μm per one eye such that the optic papilla was contained, 3 sections were optionally selected. With regard to the thus selected sections, a photograph of the retina in the range of from 1 to 1.5 mm on the left or right side from the optic papilla was taken, and the number of cells in the ganglion cell layer (GCL) in the retina (RGC number) and the thickness of the inner plexiform layer (IPL) were measured. From these measured values and in accordance with Equation 1 and Equation 2, a ganglion cell death inhibition rate and an IPL thinning inhibition rate were calculated. […]

trypsin = conditions: stated as known; cited from earlier work
[2] = 100 nmol/eye co-administered with 4 mM NMDA (5 μl)
[3] = 10 nmol/eye co-administered with 4 mM NMDA (5 μl)
[4] = 10 nmol/eye co-administered with 4 mM NMDA (5 μl), listed as FUT-187
[5] = 10 nmol/eye co-administered with 4 mM NMDA (5 μl), listed as nafamostat

SMILES | Ganglion cell death inhibition rate [1, 2] [%] | IPL thinning inhibition rate [1, 2] [%] | trypsin inhibitory activity (trypsin) | Ganglion cell death inhibition rate [1, 3] [%] | IPL thinning inhibition rate [1, 3] [%] | Ganglion cell death inhibition rate [1, 4] | IPL thinning inhibition rate [1, 4] | Ganglion cell death inhibition rate [1, 5] | IPL thinning inhibition rate [1, 5]
CCOC(=O)c1ccc(OC(=O)CCCCCNC(=N)N)cc1 [Comparative test liquid 2, ethyl-4-(6-guanidinohexanoyloxy)benzoate methanesulfonate] | 17.8 | 2.4 | have a trypsin inhibitory activity |  |  |  |  |  | 
N=C(N)c1ccc2cc(OC(=O)c3ccc(NC4=NCCN4)cc3)ccc2c1 [Test liquid 2, 6′-amidino-2′-naphthyl-(4-(4,5-dihydro-1H-2-imidazolyl)amino)benzoate dimethanesulfonate] |  |  | have the same activity | 136.8 | 63.1 | high | high |  | 
N=C(N)Nc1ccc(C(=O)Oc2ccc3cc(C(=N)N)ccc3c2)cc1 [Test liquid 1, 6′-amidino-2′-naphthyl-4-guanidinobenzoate dimethanesulfonate] |  |  | have the same activity | 78.8 | 54.8 |  |  | high | high
